The record followed here is ChEMBL document CHEMBL5150018, “Subtilisin-like Serine Protease 1 (SUB1) as an Emerging Antimalarial Drug Target: Current Achievements in Inhibitor Discovery” (J Med Chem, 2022).

Test [1] has as its target T1, Subtilisin-like protease 1 (Plasmodium falciparum, UniProt O61142).
T1 sequence (O61142 whole entry): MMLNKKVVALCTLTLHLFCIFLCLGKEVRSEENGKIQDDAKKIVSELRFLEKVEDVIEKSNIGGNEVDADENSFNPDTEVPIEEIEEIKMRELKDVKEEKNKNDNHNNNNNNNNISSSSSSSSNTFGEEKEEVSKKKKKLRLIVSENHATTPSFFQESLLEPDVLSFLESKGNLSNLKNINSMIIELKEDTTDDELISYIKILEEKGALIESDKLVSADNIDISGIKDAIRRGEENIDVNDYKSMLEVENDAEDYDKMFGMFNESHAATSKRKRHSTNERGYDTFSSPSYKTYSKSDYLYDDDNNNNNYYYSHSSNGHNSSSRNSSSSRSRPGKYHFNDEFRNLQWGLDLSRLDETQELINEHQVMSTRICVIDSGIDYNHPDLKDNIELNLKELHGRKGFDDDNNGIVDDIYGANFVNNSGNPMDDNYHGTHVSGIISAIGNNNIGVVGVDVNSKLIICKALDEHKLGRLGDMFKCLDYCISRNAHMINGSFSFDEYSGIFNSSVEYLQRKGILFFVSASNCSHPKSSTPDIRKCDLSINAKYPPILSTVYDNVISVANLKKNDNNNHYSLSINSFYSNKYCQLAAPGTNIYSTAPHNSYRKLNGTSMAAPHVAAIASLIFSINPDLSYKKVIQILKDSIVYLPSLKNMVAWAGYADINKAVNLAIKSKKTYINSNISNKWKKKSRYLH
Briefly: Inhibition of Plasmodium falciparum SUB1 in intact schizonts.

Test [2] concerns the target T1, Subtilisin-like protease 1. Briefly: Binding affinity to Plasmodium falciparum SUB1 using KLVSADNIDIS peptide as substrate by FRET assay.
Test [3] concerns Plasmodium falciparum. The test can be described thus: Antimalarial activity against Plasmodium falciparum 3D7 assessed as inhibition of parasitic growth measured after 48 hrs. It counts as functional, organism-based. As to conditions: 3D7, 48 h.
For test [4], the system named is Plasmodium falciparum. Briefly: Antimalarial activity against Plasmodium falciparum Dd2 assessed as inhibition of parasitic growth measured after 48 hrs. As to conditions: Dd2, 48 h. It counts as functional, organism-based.
In test [5] the test system is Plasmodium falciparum. The test can be described thus: Antimalarial activity against synchronized Plasmodium falciparum 3D7 infected in human RBC assessed as inhibition of parasite growth at schizont stage incubated for 4 to 8 hrs by Giemsa staining based microscopic analysis. The test is classed as functional. As to conditions: 3D7, Erythrocyte, time 4-8 hrs, read-out: ED50 (the source's name).

In test [6] the test system is Plasmodium falciparum. The test can be described thus: Antimalarial activity against synchronized Plasmodium falciparum 3D7 infected in human RBC assessed as inhibition of cell invasion incubated for 4 to 8 hrs by Giemsa staining based microscopic analysis. The test is classed as functional. As to conditions: 3D7, Erythrocyte, time 4-8 hrs, read-out: ED50 (the source's name).

Test [7] deals with T1, Subtilisin-like protease 1. The test can be described thus: Inhibition of recombinant Plasmodium falciparum SUB1 using SERA4st1F-6R1 as substrate by fluorescence spectrophotometer.
Test [8] has as its target T1, Subtilisin-like protease 1. Briefly: Inhibition of Plasmodium falciparum SUB1.
The test system of test [9] is Plasmodium falciparum. The test can be described thus: Antimalarial activity against Plasmodium falciparum 3D7 assessed as inhibition of parasite growth incubated for 96 hrs by SYBR Green dye based assay. The test is classed as functional, organism-based. As to conditions: 3D7, 96 h.
Test [10] in a line: Inhibition of recombinant Plasmodium knowlesi SUB1 using SERA4st1F-6R1 as substrate by fluorescence spectrophotometer.
A short description of test [11]: Inhibition of recombinant Plasmodium vivax SUB1 using SERA4st1F-6R1 as substrate by fluorescence spectrophotometer.
Test [12] concerns the target T1, Subtilisin-like protease 1. The test can be described thus: Inhibition of recombinant C-terminal 6-His tagged Plasmodium falciparum SUB1 expressed in baculovirus expression system.
A short description of test [13]: Inhibition of recombinant C-terminal 6-His tagged Plasmodium vivax SUB1 expressed in baculovirus expression system.
Test [14] in a line: Inhibition of Plasmodium vivax SUB1.
Test [15] is described as follows: Inhibition of Bacillus licheniformis Subtilisin A.

*1 amine or outer side, *2 acyl side, *3 side chain or, on linkers, in order; H or OH if unused. Where a SMILES comes first, the peptide text is derived from it. [ ]: non-standard residue; d: D form. The star is where a group is joined. Abu(ψCOCO) = CC[C@H](N[*:1])C(=O)C(=O)[*:2]; X1 = NC(=O)CC[C@H](N[*:1])C(=O)C(=O)[*:2]; X2 = C[C@H](N[*:1])C(=O)C(F)(F)C(=O)[*:2]; Pentanoyl(4-Me) = CC(C)CCC(=O)*; Bn = c1ccc(C*)cc1; CF3 = FC(F)(F)*; NHcPr = C1CC1N*

Compound `O=C(CCCCCNC(=O)CCCC[C@H]1SC[C@H]2NC(=O)N[C@H]21)NCCCCCC(=O)Nc1ccc2c(Cl)c(OCCc3ccccc3)oc(=O)c2c1` yielded an IC50 in [1] of 18 µM.

Consider `CSc1ccc(CCNC(=O)Cn2ncc3c([nH]c4ccccc43)c2=O)cc1`, for which the affinity in test [2] corresponds to a Ki of 14.7 µM. Moreover, the half-inhibitory concentration (IC50) in [3] and in test [4] was greater than 50 µM throughout. Take `O=C(Nc1ccc(-c2nc3cc(NC(=O)c4ccccc4)ccc3[nH]2)cc1)c1ccccc1`: the Ki in test [2] is 7.6 µM. For the same compound, the IC50 in test [3] is 1.1 µM; in test [4], 3.3 µM. On to `Oc1ccc(C2Oc3c(c(O)cc4c3C3c5c(O)cc(O)c(O)c5OC(c5ccc(O)c(O)c5)(O4)C3O)CC2O)cc1O` (stereo not given), for which the values for the EC50 in test [5] and in test [6] were 108 µM and 25 µM, respectively. As for `COc1ccc(Nc2cc(C)c3cc(NC(=O)c4cc5ccccc5[nH]4)ccc3n2)cc1`, the half-maximal inhibitory concentration (IC50) is 0.37 µM in [3] and 0.45 µM in test [4].

Turning to `CC[C@H](C)[C@H](NC(C)=O)C(=O)N[C@H](C(=O)N[C@@H](C)C(=O)N[C@@H](C)C(=O)C(F)(F)C(=O)O)[C@@H](C)O`, the IC50 in [7] was greater than 50 µM. Turning to `Nc1cc2nc(Nc3ccc(Br)cc3)c(Nc3ccc(Br)cc3)nc2cc1Cl`, the IC50 in test [7] came out at 17 µM. In test [8], `CC(=O)N[C@H](C(=O)N[C@H](C(=O)NCC(=O)N[C@@H](C)B(O)O)[C@@H](C)O)C1CCCC1` registered an IC50 of 9.3 µM. Also, the EC50 in test [9] stood at 2.3 µM.

Turning to `CC(=O)N[C@H](C(=O)N[C@H](C(=O)NCC(=O)N[C@@H](C)B(O)O)C(C)C)C1CCCC1`, in test [8], the concentration for half-maximal inhibition (IC50) was determined as 5.7 µM. The EC50 in [9] stood at 0.26 µM. For `COc1cc(Cl)c(C)cc1NC(=O)Cn1c(=O)n(CC(=O)NC2CCCC2)c(=O)c2ccccc21`, the affinity in [2], expressed as Ki, was 30 µM. In addition, the IC50 in [3] and in [4] was greater than 50 µM throughout. In test [8], `CC(=O)N[C@H](C(=O)N[C@H](C(=O)NCC(=O)NC(C)C(=O)C(=O)NCCC(=O)O)[C@@H](C)O)C1CCCC1` (stereo not given in full) came in with an IC50 of 0.37 µM. As to `Clc1cc(Nc2nc3ccccc3nc2Nc2ccc(Br)c(Cl)c2)ccc1Br`, the concentration for half-maximal inhibition (IC50) in test [7] was found to be 14 µM. For the compound `CC[C@H](C)[C@H](NC(C)=O)C(=O)N[C@H](C(=O)NCC(=O)N[C@@H](C)B(O)O)[C@@H](C)O`, the IC50 in [8] is 0.069 µM. For the same compound, the EC50 in test [9] amounted to 1.8 µM.

`CC(=O)N[C@H](C(=O)N[C@@H](C)C(=O)NCC(=O)N[C@@H](C)B(O)O)C1CCCC1` returned an IC50 in [8] of 7.8 µM. Also, the EC50 in test [9] stood at 0.34 µM. In turn, `CCc1cccc(NC(=O)c2ccc3c(=O)n4nc(Nc5cc(C)ccc5C)sc4nc3c2)c1` displayed an inhibition constant (Ki) in [2] of 30.1 µM. The IC50 is 17.1 µM in test [3] and 22.3 µM in test [4]. As for `CC(=O)N[C@H](C(=O)N[C@H](C(=O)NCC(=O)N[C@H]1CCOB1O)[C@@H](C)O)C1CCCC1`, half-maximal inhibition in [8] (IC50) required 4.6 µM. Besides, in test [9], the EC50 was 15 µM. On to `CC(C)[C@H](NC(=O)Cc1ccccc1)C(=O)NCC(=O)N[C@@H](C)C(=O)C(F)(F)C(=O)NCC(=O)O`, for which the half-maximal inhibitory concentration (IC50) in [7] stood at 1 µM. As for `CS(=O)(=O)Nc1cc2nc(Nc3ccc(Br)cc3)c(Nc3ccc(Br)cc3)nc2cc1Cl`, in test [7], the half-inhibitory concentration (IC50) came to 11 µM. On the same count and under the same terms, with `Brc1ccc(Nc2nc3ccccc3nc2Nc2ccc(Br)cc2)cc1` the figure was 10 µM; with `CC[C@H](C)[C@H](NC(C)=O)C(=O)N[C@H](C(=O)N[C@@H](C)C(=O)N[C@@H](C)C(=O)C(F)(F)F)[C@@H](C)OCc1ccccc1` (Ac-IT(Bn)AA-CF3), greater than 50 µM. Take `CC[C@H](C)[C@H](NC(C)=O)C(=O)N[C@H](C(=O)N[C@@H](C)C(=O)N[C@@H](C)C(=O)C(F)(F)C(=O)NCC(=O)O)[C@@H](C)O` (Ac-ITA[X2]G-OH): the results for the half-maximal inhibitory concentration (IC50) in test [10] and in [11] were 0.68 µM and 2.2 µM, respectively. In the case of `CC[C@H](C)[C@H](NC(C)=O)C(=O)N[C@H](C(=O)NCC(=O)N[C@@H](C)C(=O)C(F)(F)C(=O)NCC(=O)O)C(C)C` (Ac-IVG[X2]G-OH), in [7], the concentration for half-maximal inhibition (IC50) amounted to 0.25 µM. As for `CC[C@H](NC(=O)[C@H](C)NC(=O)[C@@H](NC(=O)[C@@H](NC(=O)[C@H](CCCCN)NC(C)=O)[C@@H](C)CC)[C@@H](C)O)C(=O)C(=O)NC1CC1` (Ac-KITA[Abu(ψCOCO)]-NHcPr), the half-maximal inhibitory concentration (IC50) in [12] turned out to be 6 µM; in test [13], 12 µM. `CC[C@H](C)[C@H](NC(=O)[C@H](CCCCN)NC(C)=O)C(=O)N[C@H](C(=O)N[C@@H](C)C(=O)N[C@@H](C)C(=O)C(F)(F)C(=O)NCC(=O)O)[C@@H](C)O` (Ac-KITA[X2]G-OH): the 50% inhibitory concentration (IC50) came to 1.12 µM in test [10] and 2.5 µM in [11]. On to `CC[C@H](C)[C@H](NC(=O)[C@H](CCCCN)NC(=O)CCC(C)C)C(=O)N[C@H](C(=O)N[C@@H](C)C(=O)N[C@@H](CCC(N)=O)C(=O)C(=O)N[C@@H](CC(=O)O)C(=O)N[C@@H](CC(=O)O)C(=O)N[C@@H](CCC(N)=O)C(=O)N[C@@H](CCC(N)=O)C(N)=O)[C@@H](C)O` ({Pentanoyl(4-Me)}-KITA[X1]DDQQ-NH2), for which the concentration for half-maximal inhibition (IC50) worked out at 17.8 µM in [8] and 10.5 µM in [14]. `CC1(C)CC[C@]2(C(=O)O)CC[C@]3(C)C(=CC[C@@H]4[C@@]5(C)C[C@@H](O)[C@H](O)C(C)(C)[C@@H]5CC[C@]43C)[C@@H]2C1` [MASLINIC ACID] gave an IC50 in test [15] of 59.3 µM.
